Data: patent US20260284020A1, “LATS KINASE INHIBITOR TO TREAT RETINAL DEGENERATION” (Children's Hospital Los Angeles, priority 2023, published 2026)
“Also recorded” adds a separate entry of the source.

Columns and labels:
[1] = system: RPE injury by laser photocoagulation in Dutch-belted rabbits; experiment: In vivo laser injury model: fundus photos and OCT imaging; parameters: species or system rabbit; details: listed as LKI; for OCT appearance of RPE layer at laser spots compared to control / pigmentation of laser spots on fundus photos compared to control: intravitreal 50 μL of 15 mM
Source text: Laser photocoagulation was used as a model for RPE injury in vivo. Prior to laser photocoagulation, Dutch-belted rabbits were sedated with ketamine and xylazine. Eyes were anesthetized with topical proparacaine and dilated with phenylephrine and tropicamide. Lubricating drops and gel were applied to prevent desiccation of the cornea.
To evaluate the effect of LATS kinase inhibition on the RPE injury response in vivo, following sedation and pharmacologic dilation, laser photocoagulation was delivered in a 6×6 grid pattern to both eyes with a 532 nm green laser (Iridex Corporation, Mountain View, CA, USA) mounted on an indirect ophthalmoscope. Power was set to 170 mW and pulse duration was set to 40 ms. Following the laser procedure, fundus photos of both eyes were obtained using a 28-diopter lens and smartphone. OCT images of both eyes were obtained on a SPECTRALIS (Heidelberg Engineering, Heidelberg, Germany) imaging system. Fundus photos and OCT images were again obtained at 1- and 4-week time points.
Dutch-belted rabbits were sedated and underwent photocoagulation of both eyes as described above, with the exception of lesion intensity alteration. Instead, laser power was held at 170 mW and pulse duration remained at 40 ms.
Following the laser procedure, the eyes were anesthetized once more with topical proparacaine. Povidone-iodine was applied to the conjunctiva or sclera using sterile Q-tips. Either 50 μL of 15 mM LATS kinase inhibitor (LKI), or vehicle control, was injected per eye using 1 mL Luer-lock syringe with a 27G 1½ inch needle. The second generation LKI, TDI-011536, was used as a micro-suspension formulation prepared in phosphate buffer solution (PBS; Sigma) supplemented with 0.5% carboxymethyl cellulose (Sigma) and 0.5% Kolliphor P 188 Bio (BASF Pharma). Intravitreal injections containing LKI were administered in the right eye and control injections were administered in the left eye. Injections were administered 1-2 mm posterior to the superotemporal or superonasal limbus and delivery of each compound was confirmed on indirect ophthalmoscopy.
To evaluate the effect of Lats kinase inhibition on the RPE injury response in vivo, 17 Dutch-belted rabbits received photocoagulation procedure to cause focal disruptions of the RPE and photoreceptor layers in a 6×6 grid of laser spots. Following photocoagulation, each animal received an intravitreal injection of 50 μL of 15 mM LKI in the right eye ([…]) and 50 μL vehicle in the left eye (n=17 eyes). Fundus photos and OCT imaging were performed immediately following the laser procedure and at 1- and 4-week time points. Three independent experiments were performed.

[2] = system: primary human fetal RPE monolayers; experiment: In vitro cell proliferation (EdU+ cells) in RPE monolayers; assay type: cell-based; details: for percentage of EdU+ cells / EdU+ cells compared to DMSO in the absence of injury (in words): 96 hours; for percentage of EdU+ cells: 1 μM, mean±SE; for EdU+ cells compared to DMSO in the absence of injury (in words): uninjured monolayers
Description: Following 72-hour acclimation period, RPE monolayers were then subjected to a controlled horizontal scratch using the WoundMaker Tool™ (Essen BioScience Ltd., Welwyn Garden City, United Kingdom) according to the protocol provided by the manufacturer. Wells were subsequently washed 1-2 times with their respective media in order to remove cell debris. Cells were then treated with either 1 μM DMSO (as control) or 1 μM TDI-011536 dissolved in either FBS-containing or FBS-free media. To label and track proliferating cells, cells were incubated with 10 μM 5-Ethynyl-2′-deoxyuridine (EdU) for 96 hours.
Ninety-six hours after the scratch, cells were immediately fixed with 4% paraformaldehyde (PFA) in phosphate-buffered saline (PBS) for 15 minutes at room temperature (RT). Cells were washed three times with PBS in between each step. Following fixation, cells were blocked and permeabilized with 3% bovine serum albumin (BSA) and 0.1% Triton X-100 in PBS for 2 hours at RT. Cells were then incubated with an EdU reaction cocktail according to the manufacturer's instructions for 30 minutes at RT, protected from light. Then, cells were incubated overnight with primary antibodies diluted in 3% BSA in PBS. The following morning, cells were incubated with secondary antibodies diluted in 3% BSA in PBS for 2 hours at RT, protected from light. Cells were counterstained with DAPI and then washed. A list of reagents and dilutions used can be found in Table 1.
Regions measuring 800 μm^2 at various distances from the scratch within each well were analyzed. In uninjured wells, three regions were randomly selected within each well. In scratched wells, three regions were centered within the original scratch area (scratch region), which was determined by overlaying the brightfield image taken immediately post-scratch over the fluorescence images 96 hours post-scratch. Another three regions were selected immediately adjacent to the original scratch area but not within it (proximal region). Finally, three additional regions at least 800 μm from the original scratch area were selected (distal region). Apart from scratch regions, only regions that were intact and confluent immediately post-scratch were analyzed. Regions with significant cell loss or those that were otherwise not confluent following the scratch were excluded from analysis.
Within each region, cell proliferation was quantified by dividing EdU/DAPI doubly positive cells by the total number of DAPI+ cells, expressed as a percentage. PAX6 expression was quantified as the ratio of PAX6+ nuclei among EdU/DAPI doubly positive nuclei, also expressed as a percentage.
To assess the effect of Lats kinase inhibition on cell proliferation in the absence of injury, RPE monolayers were incubated with EdU for 96 hours with the addition of LKI or DMSO. Cell proliferation was quantified as the percentage of EdU+ cells within 3 randomly selected regions within each well.
To assess whether Lats kinase inhibition accelerates wound healing via RPE proliferation in vitro, and the mechanism of wound closure with Lats kinase inhibition, RPE monolayers were incubated with EdU following the initial scratch and remained exposed to EdU for 96 hours. At 96 hours, cells were fixed and stained for various cell markers. The percentage of EdU+ cells within scratch, proximal, and distal regions was recorded (FIG. 2A).

[3] = proximal regions, FBS-free media
[4] = scratch regions, FBS-free media

## O=C(/N=c1\scc(CO)n1Cc1ccccc1)c1c[nH]c2ncccc12 [TDI-011536]
[1]; 1 week after laser
  OCT appearance of RPE layer at laser spots compared to control: thickening of the RPE layer with associated shadowing; also recorded: Shadowing (*) was common; also recorded: appeared thicker with increased shadowing
  pigmentation of laser spots on fundus photos compared to control: hyperpigmentation of laser spots; also recorded: increased pigmentation
[1]; 4 weeks after laser
  OCT appearance of RPE layer at laser spots compared to control: more pronounced; also recorded: Shadowing (*) was common; also recorded: significantly increased thickness of the RPE layer
  pigmentation of laser spots on fundus photos compared to control: more pronounced; also recorded: robust increase in pigmentation
[1]; rabbit eye, intravitreal 50 μL of 15 mM microsuspension
  persistence of LKI microsuspension (depot) in the eye: visible after 1 week; also recorded: up to a month
[2]; discussion, media not stated
  percentage of EdU+ cells in monolayers not subjected to injury (in words): only a modest increase
[2]; distal regions, FBS-free media
  percentage of EdU+ cells: 3.20±0.48%
  difference in percentage of EdU+ cells, LKI vs control: 0.91±0.62%
  percentage of EdU+ cells compared to control (in words): no significant difference
[2]; [3]
  percentage of EdU+ cells: 10.25±1.30%
  difference in percentage of EdU+ cells, LKI vs control: 7.36±1.38%
  percentage of EdU+ cells compared to control (in words): significantly higher percentage of EdU+ cells
[2]; [4]
  percentage of EdU+ cells: 40.11±2.07%
  difference in percentage of EdU+ cells, LKI vs control: 6.88±2.80%
  percentage of EdU+ cells compared to control (in words): significantly higher percentage of EdU+ cells
[2]; scratched monolayers, FBS-containing media
  percentage of EdU+ cells compared to control (in words): significantly higher percentage of EdU+ cells at the scratch site and proximal areas but not distal areas
[2]; FBS-containing media
  EdU+ cells compared to DMSO in the absence of injury (in words): significantly more EdU+ cells
[2]; FBS-free media
  EdU+ cells compared to DMSO in the absence of injury (in words): significantly more EdU+ cells
